Reference: patent US20240165423A1, “METHODS, SYSTEMS AND DEVICES FOR MODULATING CENTRAL NERVOUS SYSTEM INFLAMMATION AND POST-OPERATIVE PAIN” (Arizona Board of Regents on Behalf of the University of …, priority 2021, published 2024)

Test system: elderly Sprague-Dawley rats with paw incision surgery
Conditions: males and females; morphine 1 or 5 mg/kg s.c. 24 h after surgery

## CN1CC[C@]23c4c5ccc(O)c4O[C@H]2[C@@H](O)C=C[C@H]3[C@H]1C5.O=S(=O)(O)O [morphine, morphine sulfate]
  paw withdrawal thresholds of morphine-injected animals compared with saline-injected counterparts: higher than that of their saline-injected counterparts at up to 1.5 hours post-injection
